Legend:
[1] = Cytotoxic activity against […] BV2 cells assessed as cell viability at 5 uM incubated for 24 hrs by MTT assay (reference value: 100%); assay type: cell-based, BV-2; conditions: read-out: Activity
[2] = Antiinflammatory activity in […] BV2 cells assessed as inhibition of lipopolysaccharide-induced nitric oxide production at 20 uM incubated for 24 hrs by Griess reagent based assay (reference value: 20.3 +/- 0.1 uM); assay type: functional, BV-2
[3] = Cytotoxic activity against […] BV2 cells assessed as cell viability at 20 uM incubated for 24 hrs by MTT assay (reference value: 100%); assay type: cell-based, BV-2; conditions: mouse, read-out: Activity
[4] = Antiinflammatory activity in […] BV2 cells assessed as inhibition of lipopolysaccharide-induced nitric oxide production at 5 uM incubated for 24 hrs by Griess reagent based assay (reference value: 20.3 +/- 0.1 uM); assay type: functional, BV-2

Row | SMILES | viability at 24 h, 5 µM [1] | Activity [2] | viability at 24 h, 20 µM [3] | Activity [4]
1 | C=C1C[C@@H](O)[C@@H]2[C@H](OC(=O)[C@H]2C)[C@H]2C(C)=C(O[C@@H]3O[C@H](CO)[C@@H](O)[C@H](O)[C@H]3O)C[C@@H]12 | 108% | 17.2 µM | 108% | 19.9 µM
2 | C=C1C(=O)O[C@@H]2[C@H]3C(C)=C(O[C@@H]4O[C@H](CO)[C@@H](O)[C@H](O)[C@H]4O)C[C@H]3C(=C)C[C@@H](OC(=O)Cc3ccc(O)cc3)[C@@H]12 | 106% | 9.3 µM | 103% | 18.2 µM
3 | C=C1[C@@H]2[C@H]3OC(=O)[C@@H](C)[C@@H]3CCC(=C)[C@@H]2C[C@@H]1O[C@@H]1O[C@H](CO)[C@@H](O)[C@H](O)[C@H]1O | 116% | 18.2 µM | 116% | 19.9 µM
4 | C=C1[C@@H]2[C@H]3OC(=O)[C@@H](C)[C@@H]3C[C@@H](O)C(=C)[C@@H]2C[C@@H]1O[C@@H]1O[C@H](CO)[C@@H](O)[C@H](O)[C@H]1O | 102% | 17.5 µM | 114% | 18.6 µM
5 | C=C1[C@@H]2[C@H]3OC(=O)C(=C)[C@@H]3C[C@@H](O)C(=C)[C@@H]2C[C@@H]1O[C@@H]1O[C@H](CO)[C@@H](O)[C@H](O)[C@H]1O | 110% | 18.7 µM | 110% | 19.7 µM
6 | C=C1C(=O)O[C@@H]2[C@H]3C(=C)[C@@H](O[C@@H]4O[C@H](CO)[C@@H](O)[C@H](O)[C@H]4O)C[C@H]3C(=C)C[C@@H](O)[C@@H]12 | 104% | 17.6 µM | 103% | 19.8 µM
7 | C=C1C[C@@H](O)[C@@H]2[C@H](OC(=O)[C@H]2C)[C@H]2[C@H](C)[C@@H](O[C@@H]3O[C@H](CO)[C@@H](O)[C@H](O)[C@H]3O)C[C@@H]12 | 103% | 19.4 µM | 103% | 19.6 µM
8 | C=C1[C@@H]2[C@H]3OC(=O)[C@@H](C)[C@@H]3[C@H](O)CC(=C)[C@@H]2C[C@@H]1O[C@@H]1O[C@H](CO)[C@@H](O)[C@H](O)[C@H]1O | 106% | 18 µM | 105% | 20.4 µM
9 | C=C1C(=O)O[C@@H]2[C@H]3C(=C)[C@@H](O[C@@H]4O[C@H](CO)[C@@H](O)[C@H](O)[C@H]4O)C[C@H]3C(=C)C[C@@H](OC(=O)Cc3ccc(O)cc3)[C@@H]12 | 106% | 16.3 µM | 109% | 20.3 µM
10 | C=C1C(=O)O[C@@H]2[C@H]3C(=C)[C@@H](O[C@@H]4O[C@H](CO)[C@@H](O)[C@H](O)[C@H]4O)C[C@H]3C(=C)C[C@@H](OC(=O)C(O)C(C)C)[C@@H]12 (stereo not given in full) | 105% | 18.2 µM | 97.5% | 21.5 µM
11 | CC1=C2[C@H]3OC(=O)[C@@H](C)[C@@H]3CC[C@@]2(C)[C@H](O)CC1 | 110% | 17.7 µM | 110% | 17.9 µM
12 | CC1=CC[C@@H](O[C@@H]2O[C@H](CO)[C@@H](O)[C@H](O)[C@H]2O)[C@]2(C)CC[C@@H]3[C@H](OC(=O)[C@H]3C)[C@@H]12 | 107% | 18.4 µM | 112% | 18.9 µM
13 | C=C1C(=O)O[C@@H]2/C=C(\CO[C@@H]3O[C@H](CO)[C@@H](O)[C@H](O)[C@H]3O)CC/C=C(\C)CC[C@@H]12 | 105% | 18 µM | 103% | 20.1 µM
14 | C/C1=C\CC/C(CO[C@@H]2O[C@H](CO)[C@@H](O)[C@H](O)[C@H]2O)=C/[C@H]2OC(=O)[C@@H](C)[C@@H]2CC1 | 113% | 18.8 µM | 107% | 19.6 µM
15 | CNC(=N)NCCC[C@H](N)C(=O)O [TILARGININE] | 112% | 14.1 µM | 108% | 20.1 µM

Source: ChEMBL document CHEMBL3621180, “Isolation of two new bioactive sesquiterpene lactone glycosides from the roots of Ixeris dentata” (Bioorg Med Chem Lett, 2015)
